Converted amounts (≈) assume the structure as drawn. Where two headings read alike, the source gives them in different places.
What was measured:
[1] = tested on: S. aureus ATCC 700699 (Sa 99); test: MIC, broth microdilution, Sa 99; format: cell-based; details: for MIC: Staphylococcus aureus, read-out: Minimum inhibitory concentration (MIC) Sa 99; for Minimum inhibitory concentration (MIC) Sa 99: Table 1, HT series
Protocol: (§1) The broth microdilution method was utilized to determine MIC values of novel thiazole derivatives against different clinically important Gram-positive bacteria according to the guidelines outlined by the Clinical and Laboratory Standards Institute (CLSI) as reported in our recent papers.^1-5 The starting concentration of compounds for MIC determination was 64 μg/mL serially diluted down the wells and the MIC values were recorded in duplicates in three independent experiments on different days.

[2] = tested on: E. faecalis ATCC 29212 (Efs 12); test: MIC, broth microdilution, Efs 12; format: cell-based; details: for MIC: Enterococcus faecalis, read-out: Minimum inhibitory concentration (MIC) Efs 12; for Minimum inhibitory concentration (MIC) Efs 12: Table 1, HT series
Protocol: as §1

[3] = tested on: S. aureus ATCC 25923 (Sa 23); test: MIC, broth microdilution, Sa 23; format: cell-based; details: for MIC: Staphylococcus aureus, read-out: Minimum inhibitory concentration (MIC) Sa 23; for Minimum inhibitory concentration (MIC) Sa 23: Table 1, HT series
Protocol: as §1

[4] = tested on: E. faecium ATCC 700221 (Efm 21); test: MIC, broth microdilution, Efm 21; format: cell-based; details: Enterococcus faecium, read-out: Minimum inhibitory concentration (MIC) Efm 21
Protocol: as §1

[5] = tested on: S. aureus ATCC 33592 (Sa 92); test: MIC, broth microdilution, Sa 92; format: cell-based; details: Staphylococcus aureus, ATCC33592; Table 2, HTM series; read-out: Minimum inhibitory concentration (MIC) Sa 92
Protocol: as §1

[6] = tested on: Sa UAMS-1 MRSA ATCC 49230 (Sa UAMS); test: MIC, broth microdilution, Sa UAMS; format: cell-based, S. aureus; details: Staphylococcus aureus; Table 2, HTM series; read-out: Minimum inhibitory concentration (MIC) Sa UAMS-1
Protocol: as §1

[7] = tested on: S. aureus subsp. aureus Rosenbach ATCC 25904 (SA Newman); test: MIC, broth microdilution, SA Newman; format: cell-based; details: Staphylococcus aureus; Table 2, HTM series; read-out: Minimum inhibitory concentration (MIC) Sa Newman
Protocol: as §1

[8] = tested on: S. epidermidis ATCC 700296 (Se); test: MIC, broth microdilution, Se; format: cell-based; details: Staphylococcus epidermidis, ATCC700296; Table 2, HTM series; read-out: Minimum inhibitory concentration (MIC) Se
Protocol: as §1

[9] = tested on: S. aureus ATCC BAA-2312 (Sa 12); test: MIC, broth microdilution, Sa 12; format: cell-based; details: Staphylococcus aureus, ATCCBAA2312; Table 2, HTM series; read-out: Minimum inhibitory concentration (MIC) Sa 12
Protocol: as §1

[10] = tested on: S. aureus subsp. aureus Rosenbach BAA-1717 (Sa USA 300); test: MIC, broth microdilution, Sa USA 300; format: cell-based; details: Staphylococcus aureus; Table 2, HTM series; read-out: Minimum inhibitory concentration (MIC) Sa USA 300
Protocol: as §1

[11] = tested on: S. aureus ATCC 33591 (Sa 91); test: MIC, broth microdilution, Sa 91; format: cell-based; details: Staphylococcus aureus, ATCC33591; Table 2, HTM series; read-out: Minimum inhibitory concentration (MIC) Sa 91
Protocol: as §1

[12] = tested on: E. faecalis ATCC 51299 (Efs 99); test: MIC, broth microdilution, Efs 99; format: cell-based; details: for MIC: Enterococcus faecalis, ATCC51299, read-out: Minimum inhibitory concentration (MIC) Efs 99
Protocol: as §1

[13] = ATCC700699, Table 1, HT series, replicates from different days separated by comma
[14] = replicates from different days separated by comma
[15] = ATCC29212, Table 1, HT series, replicates from different days separated by comma
[16] = ATCC25923, Table 1, HT series, replicates from different days separated by comma
[17] = ATCC700221, Table 2, HTM series
[18] = ATCC700699, Table 2, HTM series

Row | Structure (SMILES) | MIC [1, 13] [µg/mL] | Minimum inhibitory concentration (MIC) Sa 99 [1, 14] | MIC [2, 15] [µg/mL] | Minimum inhibitory concentration (MIC) Efs 12 [2, 14] | MIC [3, 16] [µg/mL] | Minimum inhibitory concentration (MIC) Sa 23 [3, 14] | MIC [4, 17] [µg/mL] | MIC [1, 18] [µg/mL] | MIC [5] [µg/mL] | MIC [6] [µg/mL] | MIC [7] [µg/mL] | MIC [8] [µg/mL] | MIC ([2]; ATCC29212, Table 2, HTM series) [µg/mL] | MIC ([3]; ATCC25923, Table 2, HTM series) [µg/mL] | MIC [9] [µg/mL] | MIC [10] [µg/mL] | MIC [11] [µg/mL] | MIC ([12]; Table 2, HTM series) [µg/mL] | other results
1 | Oc1ccc(-c2nc(C(F)(F)F)cs2)cc1O [Compound 1, 4-(4-(trifluoromethyl)thiazol-2-yl)benzene-1,2-diol] | > 32 | >32, >32 μg/mL | > 32 | >32, >32 μg/mL | > 32 | >32, >32 μg/mL |  |  |  |  |  |  |  |  |  |  |  |  | 
2 | COc1ccc(-c2csc(-c3ccc(O)c(O)c3)n2)cc1 [Compound 7, 4-(4-(4-methoxyphenyl)thiazol-2-yl)benzene-1,2-diol] | 32 (≈ 107 µM) | 32, 32 μg/mL | > 32 | >32, >32 μg/mL | 16 (≈ 53.4 µM) | 16, 16 μg/mL |  |  |  |  |  |  |  |  |  |  |  |  | 
3 | Oc1ccc(-c2nc(-c3ccncc3)cs2)cc1O [Compound 11, 4-(4-(pyridin-4-yl)thiazol-2-yl)benzene-1,2-diol] | > 32 | >32, >32 μg/mL | > 32 | >32, >32 μg/mL | > 32 | >32, >32 μg/mL |  |  |  |  |  |  |  |  |  |  |  |  | 
4 | N#Cc1ccc(-c2csc(-c3ccc(O)c(O)c3)n2)cc1 [Compound 12, 4-(2-(3,4-dihydroxyphenyl)thiazol-4-yl)benzonitrile] | > 32 | >32, >32 μg/mL | > 32 | >32, >32 μg/mL | > 32 | >32, >32 μg/mL |  |  |  |  |  |  |  |  |  |  |  |  | 
5 | O=C(O)c1ccc(-c2csc(-c3ccc(O)c(O)c3)n2)cc1 [Compound 13, 4-(2-(3,4-dihydroxyphenyl)thiazol-4-yl)benzoic acid] | > 32 | >32, >32 μg/mL | > 32 | >32, >32 μg/mL | > 32 | >32, >32 μg/mL |  |  |  |  |  |  |  |  |  |  |  |  | 
6 | Oc1ccc(-c2nc(-c3ccc(-c4ccccc4)cc3)cs2)cc1O [Compound 15, 4-(4-([1,1′-biphenyl]-4-yl)thiazol-2-yl)benzene-1,2-diol] | > 32 | >32, >32 μg/mL | > 32 | >32, >32 μg/mL | > 32 | >32, >32 μg/mL |  |  |  |  |  |  |  |  |  |  |  |  | 
7 | NC(=O)c1cc(-c2csc(-c3ccc(O)c(O)c3)n2)ccc1O [Compound 16, 5-(2-(3,4-dihydroxyphenyl)thiazol-4-yl)-2-hydroxybenzamide] | > 32 | >32, >32 μg/mL | > 32 | >32, >32 μg/mL | > 32 | >32, >32 μg/mL |  |  |  |  |  |  |  |  |  |  |  |  | 
8 | O=c1oc2ccccc2cc1-c1csc(-c2ccc(O)c(O)c2)n1 [Compound 17, 3-(2-(3,4-dihydroxyphenyl)thiazol-4-yl)-2H-chromen-2-one] | 16 (≈ 47.4 µM) | 32 µg/mL (≈ 94.9 µM) | > 32 | >32, >32 μg/mL | > 32 | >32, >32 μg/mL |  |  |  |  |  |  |  |  |  |  |  |  | 
9 | Oc1ccc(-c2csc(-c3cc(Cl)cc(Cl)c3)n2)cc1 [Compound 43, 4-(2-(3,5-dichlorophenyl)thiazol-4-yl)phenol] |  |  |  |  |  |  | 2 (≈ 6.21 µM) | 1 (≈ 3.1 µM) | 1 (≈ 3.1 µM) | 1 (≈ 3.1 µM) | 1 (≈ 3.1 µM) | 1 (≈ 3.1 µM) | 2 (≈ 6.21 µM) | 1 (≈ 3.1 µM) | 1 (≈ 3.1 µM) | 1 (≈ 3.1 µM) | 1 (≈ 3.1 µM) | 2 (≈ 6.21 µM) | 
10 | Oc1ccc(-c2csc(-c3ccc(C(F)(F)F)cc3)n2)cc1O [Compound 47, 4-{2-[4-(trifluoromethyl)phenyl]-1,3-thiazol-4-yl}benzene-1,2-diol] |  |  |  |  |  |  | 8 (≈ 23.7 µM) | 8 (≈ 23.7 µM) | 8 (≈ 23.7 µM) | 8 (≈ 23.7 µM) | 8 (≈ 23.7 µM) | 8 (≈ 23.7 µM) | 16 (≈ 47.4 µM) | 4 (≈ 11.9 µM) | 4 (≈ 11.9 µM) | 8 (≈ 23.7 µM) | 8 (≈ 23.7 µM) | 8 (≈ 23.7 µM) | 
11 | Oc1ccc(-c2csc(Nc3cc(C(F)(F)F)cc(C(F)(F)F)c3)n2)cc1O [Compound 58, 4-(2-((3,5-bis(trifluoromethyl)phenyl)amino)thiazol-4-yl)benzene-1,2-diol] |  |  |  |  |  |  | 4 (≈ 9.52 µM) | 4 (≈ 9.52 µM) | 4 (≈ 9.52 µM) | 4 (≈ 9.52 µM) | 4 (≈ 9.52 µM) | 4 (≈ 9.52 µM) | 4 (≈ 9.52 µM) | 4 (≈ 9.52 µM) | 4 (≈ 9.52 µM) | 4 (≈ 9.52 µM) | 4 (≈ 9.52 µM) | 4 (≈ 9.52 µM) | 
12 | Oc1ccc(-c2csc(Nc3cc(C(F)(F)F)cc(C(F)(F)F)c3)n2)cc1 [Compound 59, 4-(2-((3,5-bis(trifluoromethyl)phenyl)amino)thiazol-4-yl)phenol] |  |  |  |  |  |  | 1 (≈ 2.47 µM) | 1 (≈ 2.47 µM) | 1 (≈ 2.47 µM) | 2 (≈ 4.95 µM) | 1 (≈ 2.47 µM) | 1 (≈ 2.47 µM) | 1 (≈ 2.47 µM) | 1 (≈ 2.47 µM) | 1 (≈ 2.47 µM) | 1 (≈ 2.47 µM) | 1 (≈ 2.47 µM) | 1 (≈ 2.47 µM) | 
13 | CCCCCCCCCC(=O)N[C@@H](Cc1c[nH]c2ccccc12)C(=O)N[C@H](CC(N)=O)C(=O)N[C@@H](CC(=O)O)C(=O)N[C@@H]1C(=O)NCC(=O)N[C@@H](CCCN)C(=O)N[C@@H](CC(=O)O)C(=O)N[C@H](C)C(=O)N[C@@H](CC(=O)O)C(=O)NCC(=O)N[C@H](CO)C(=O)N[C@@H]([C@H](C)CC(=O)O)C(=O)N[C@@H](CC(=O)c2ccccc2N)C(=O)O[C@@H]1C [Dapt., Daptomycin, reference compound] |  |  |  |  |  |  | 1 (≈ 0.617 µM) |  |  |  |  |  |  |  |  |  |  |  | MIC ([4]; ATCC700221, Table 1, HT series): 4 µg/mL (≈ 2.47 µM); MIC ([12]; Table 1, HT series): 1 µg/mL (≈ 0.617 µM); Minimum inhibitory concentration (MIC) Efs 99 ([12]; Table 2, HTM series): 1 µg/mL (≈ 0.617 µM)

From US20250270199A1, “THIAZOLE DERIVATIVES AND METHODS OF USING THE SAME” (Arkansas State University - Jonesboro, priority 2022, published 2025)
